Results from the METLIN SMRT retention time set (Domingo-Almenara et al. 2019).

Test: gradient 5% acetonitrile 3 min, to 50% in 2 min, to 85% in 15 min, held 3 min, 100 µL/min
Settings: column: Zorbax Extend-C18 2.1 x 50 mm; eluents: water / acetonitrile, 0.1% formic acid
Summary of the method: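 Data were gathered over 3 months by HPLC coupled to a quadrupole time-of-flight mass spectrometer, operated in positive and negative ionization mode. Mixtures of ~100 pure standards ran on a Zorbax Extend-C18 column (2.1 × 50 mm, 1.8 μm) at 100 μL/min, with water and acetonitrile each containing 0.1% formic acid and dead and dwell volumes of 40 μL and 900 μL. Retention time was read from adduct peaks picked by computer and checked manually.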

SMILES	RP-LC retention time
CCc1c(C)nc2nc(-c3ccccc3)nn2c1Nc1cccc(OC)c1	989 s
COc1cc(N)c(Cl)cc1C(=O)N[C@@H]1CCN(CCCOc2ccc(F)cc2)C[C@@H]1OC	772 s
CCc1cccc(NC(=O)C2(C)CCCCC(=O)N2)c1 (stereo not drawn)	753 s
CCCSCCCNC(=O)c1cc2n(n1)CCCN(Cc1ccccc1)C2=O	878 s
O=c1ccc(-c2ccc3c(c2)OCO3)nn1CCc1nc(-c2cccc(Cl)c2)no1	1010 s
CCSc1nnc(NC(=O)CSc2nc3ccccc3o2)s1	832 s
COC[C@@H]1CN(S(=O)(=O)c2cccc(F)c2)C[C@H]1c1ccncc1	649 s
Cc1ccc(F)cc1S(=O)(=O)N[C@@H]1CN(c2ncccn2)C[C@H]1CN(C)C	618 s
COc1ccc(-c2noc(Cn3c(=O)n(C(C)C)c(=O)c4ccccc43)n2)cc1	1110 s
CCCN(CC1CCOC1)C(=O)Nc1cc(C)ccc1C (stereo not drawn)	796 s
CCOc1cccc(CN2C[C@@H]3C(=O)N(CCN4CCc5ccccc5C4)C(=O)[C@@H]3C2)c1	622 s
COC(=O)[C@H]1[C@H]2C[C@H]3c4[nH]c5cc(OC)ccc5c4CCN3C[C@H]2C[C@@H](OC(=O)c2cc(OC)c(OC)c(OC)c2)[C@@H]1OC	913 s
COc1ccc(-c2csc(C)n2)cc1S(=O)(=O)N(C)c1ccc(C)cc1	1040 s
Cn1cc(CCNC(=O)CSc2ccccc2)c2cccnc21	686 s
COc1ccc(NC(=O)c2cc(C)n3nc(-c4ccco4)cc3n2)cc1Cl	1110 s
COc1ccccc1NC(=O)Nc1ccc2c(c1)N(S(=O)(=O)c1cccs1)CCC2	967 s
Cc1ccccc1Nc1c(-c2cccc(Cl)c2)nc2ccc(Br)cn12	1120 s
Cc1cc(C)cc(NC(=O)Nc2nccn(-c3ccc(Br)cc3)c2=O)c1	1130 s
CC(C)c1cc(C(=O)Nc2cc(F)cc(F)c2)nc2ccnn12	1180 s
CCn1c(=O)c2cc(C(=O)NCc3ccccc3C(F)(F)F)nn2c2ccccc21	1000 s
COC(=O)CNC(=O)NCC(=O)N1CCc2ccccc21	647 s
CC(C(=O)NCc1ccccc1F)n1c(=O)c(C(F)(F)F)nc2ccccc21 (stereo not drawn)	1020 s
CN(C)CCOc1ccc(I)cc1Cc1ccccc1	739 s
N#CCCSc1ccccc1NC(=O)c1ccc(C(=O)c2ccccc2)cc1	924 s
CCc1ccccc1N1C(=O)c2c(C(=O)OC)ncn2CC1(C)C(=O)NCc1ccccc1 (stereo not drawn)	735 s
Cc1ccc(-c2noc(-c3ccccc3S(=O)(=O)N3CCN(c4ccccn4)CC3)n2)cc1	862 s

SMILES	RP-LC retention time
CCCNC(=O)CCc1nc2ccccc2n(CC(=O)Nc2ccc(OC)cc2)c1=O	746 s
CCOc1ccc(-c2noc(Cn3nc4ccc(-c5ccc(C)cc5)nn4c3=O)n2)cc1OC	966 s
c1ccc(-c2nc3nccc(-c4ccncc4)n3n2)cc1	699 s
CC1=NS(=O)(=O)N(C)C=C1C(=O)OCc1noc(-c2ccccc2Cl)n1	975 s
Fc1ccccc1-c1nnc(SCc2cccc(C(F)(F)F)c2)o1	1070 s
COc1ccc(OCC(=O)Nc2nc(-c3ccc(Cl)cc3)cs2)cc1	1140 s
CCNC(=O)CCc1cc2cc(C)ccc2[nH]c1=O	638 s
Cc1ncc2c(n1)C[C@@H]1CC[C@H]2N1C(=O)COc1ccc(F)cc1	675 s
CCc1nnc(-c2cccs2)o1	731 s
Cc1ccnc(Nc2nc(-c3ccc(C)cc3C)cs2)c1	859 s
O=[N+]([O-])c1cccc(-c2ccc(SCc3ccccn3)nn2)c1	637 s
O=S1(=O)N=CN(c2ccc3c(c2)CCC3)c2ncccc21	862 s
COC(=O)c1cc(OCC(=O)Nc2ccc(OC)cc2)c2cc(F)ccc2n1	796 s
COc1ccc(OC)c(NC(=O)CN2c3ccc(F)cc3-c3ccccc3S2(=O)=O)c1	1010 s
CC(=O)Nc1ccc(C(=O)NCCNC(=O)Nc2cccs2)cc1	600 s
COc1cccc(N2C(=O)N(Cc3cccc(F)c3)S(=O)(=O)c3cccnc32)c1	1010 s
Cc1cccc2nc(-c3c(F)cccc3Cl)c(Nc3ccc4c(c3)OCO4)n12	697 s
Cc1noc2nc(CCC(=O)NCc3ccccn3)nc(N3CC(C)CC(C)C3)c12 (stereo not drawn)	690 s
COc1cc(NC(=O)CCl)ccc(=O)c1	631 s
CC(C)c1noc(-c2cc(=O)n(CC(=O)NCc3cccc(Cl)c3)c3ccccc23)n1	1030 s
CC(C)(C)c1noc(-c2cccnc2-n2cnc(C(=O)Nc3ccc(F)cc3)c2)n1	984 s
O=C(Nc1ccc(F)cc1)c1ccc(Br)s1	935 s
CC(NC(=O)C1CCN(S(C)(=O)=O)c2cc(Cl)ccc2O1)c1ccccc1 (stereo not drawn)	935 s
COc1ccc(N2CCN(C(=O)[C@@H]3[C@H](c4cc(OC)c(OC)c(OC)c4)c4cc5c(cc4[C@H](O)[C@H]3CO)OCO5)CC2)cc1	698 s
COc1cc(NC(=O)CN2C(=O)COc3ccc(C(=O)N(C)C)cc32)cc(OC)c1	689 s

Next, values leading:

RP-LC retention time	SMILES
717 s	O=C(Nc1cccnc1Cl)C1CCCN(c2ncnc3c2nc2n3CCCCC2)C1 (stereo not drawn)
1040 s	Cc1sc2ncnc(SCC(=O)c3ccc4c(c3)OCCO4)c2c1C
659 s	Cc1ccc(C(=O)N2CCC(n3c(=O)n(C)c4cncnc43)CC2)s1
583 s	O=C(Nc1cccnc1)C1CCc2nc(N3CCCCC3)ncc2C1 (stereo not drawn)
646 s	COc1ccccc1N1CCN(CCCNc2c(C)c(=O)n(C)c(=O)n2C)CC1
668 s	CCOc1ccc(Nc2c(C(=O)N3CCCCC3C)cnc3nc(C)ccc23)cc1 (stereo not drawn)
919 s	CC1(C(=O)NC2CCCCCCC2)CN(S(C)(=O)=O)CC(=O)N1c1cccc(F)c1 (stereo not drawn)
584 s	Cc1nc2cccnc2n1CCN1CCN(C(=O)Nc2ccccc2Cl)CC1
656 s	Cc1nn2c(CNC(=O)c3ccc(Br)cc3)c(C)nc2s1
659 s	CC1CCCCC1NC(=O)C1(C)Cn2c(cc3occc32)C(=O)N1Cc1cccnc1 (stereo not drawn)
803 s	O=c1n(CC2CC2)nc2n1CCN(S(=O)(=O)c1ccccc1C(F)(F)F)C2
943 s	CCOc1ccc2c(n1)CCN(C(=O)Nc1ccc(CC)cc1)C2
643 s	O=C(NCC1CC1)C1CCCN(c2cnc3nccnc3c2)C1 (stereo not drawn)
706 s	CCC1CN(C(=O)N2CCC(C(=O)NCCc3ccco3)CC2)c2cc(C)ccc2O1 (stereo not drawn)
632 s	CCn1cc(S(=O)(=O)N2CC(n3cc(C(=O)N4CCOCC4)nn3)C2)cn1
826 s	CC(=O)N1CCc2cc(S(=O)(=O)C(C)CC(=O)N3CCN(c4ccccc4F)CC3)ccc21 (stereo not drawn)
699 s	COc1ccc(OC)c(NC(=O)C2Cn3cccc3C(=O)N2C)c1 (stereo not drawn)
666 s	COCCn1ccc2nc(C)c(C(=O)Nc3ccc4c(c3)OCO4)cc2c1=O
760 s	Cc1ccccc1NC(=O)C1CCN(S(=O)(=O)c2cc(C(=O)N3CCCC3)cs2)CC1

RP-LC retention time	SMILES
993 s	CCn1c(=O)c(N2CCC(NC(=O)Nc3cc(C)ccc3C)CC2)nc2cccnc21
706 s	CCC(NC(=O)C1CCN(c2cncnc2N2CCCCC2)CC1)c1cccs1 (stereo not drawn)
832 s	CCn1c(=O)c(N2CCCC(C(=O)N3CCN(C(=O)c4ccco4)CC3)C2)nc2ccccc21 (stereo not drawn)
784 s	O=C(NCc1csc(-c2ccccc2)n1)C1CCN(C(=O)Nc2ccc(F)cc2F)CC1
1080 s	CCc1nc(-c2csc(S(=O)(=O)N3CCCC(C(=O)Nc4cccc(Cl)c4C)C3)c2)no1 (stereo not drawn)
763 s	Cc1ccc(-c2nc3nc(C)cc(N4CCOCC4)n3n2)cc1
536 s	O=C1C(N2CCN(S(=O)(=O)c3cccs3)CC2)CCN1Cc1cccnc1 (stereo not drawn)
710 s	Cc1c(-c2noc(C(=O)NCCN3CCCCCC3)n2)oc2ccccc12
758 s	CC(C)CCn1nc2c(S(=O)(=O)N3CCOCC3)cccn2c1=O
897 s	CCOC(=O)C1=C(CNc2ccc(C)c(Cl)c2)NC(=O)NC1c1ccc2c(c1)OCO2 (stereo not drawn)
830 s	CCOc1ccccc1C1NC(=O)N(CC(=O)N2CCN(c3ccc(F)cc3)CC2)C2=C1C(=O)OC2 (stereo not drawn)
650 s	O=C(c1ccc2ccccc2n1)N1CCN(C(=O)N2C[C@H]3C[C@H](C2)[C@H]2CCCC(=O)N2C3)CC1
708 s	Cc1ccc(C2NC(=O)N(C)C3=C2C(=O)N(C(CC(C)C)C(=O)N2CCOCC2)C3)c(C)c1 (stereo not drawn)
757 s	O=C(Cn1nc2n(c1=O)CCCCC2)Nc1cccc(Br)c1
750 s	Cc1ccc(Cl)cc1NC(=O)NCC1CCOCC1
875 s	CCc1ccc(C2=C(C)C(N3CCCN(C(=O)C4CCC4)CC3)=NS2(=O)=O)cc1
773 s	O=C(c1c(-c2ccccc2)nnc2ccccc12)N1CCN(c2ncccn2)CC1
647 s	O=C(NCc1ccc(Cl)cc1)C1CCN(c2cncnc2N2CCOCC2)CC1
